“Also recorded” adds a separate entry of the source.
Experiments:
[1] = test system: endogenous androgen biosynthesis; assay: study in intact male rats: weights of sex accessory tissue and other organs; type: in vivo, male Sprague-Dawley rats; conditions: 7 days; for Adrenal weight (± Sem): intact control 27 ± 2; for Dorsal Lateral Prostate weight (± Sem): intact control 244 ± 12; for Seminal Vesicles weight (± Sem): intact control 394 ± 12; for Ventral Prostate weight (± Sem): intact control 421 ± 15; for Kidney weight (± Sem): intact control 1260 ± 63; for Testis weight (± Sem): intact control 1650 ± 38
Protocol: Studies with intact male Sprague-Dawley rats (300g body weight) are illustrated for compounds (1) and (2).
Similarly, compound (2), […] rats at a dosage of 20mg per kilo for 7 days produced 20% reduction in weight of the ventral prostate and 28% reduction of the dorsal lateral prostate.
The following data illustrates the inhibiting effect of estryne and pregnyne on Δ^5 -3-ketosteroid isomerase (EC 5.3.3.1) as evidenced by a depression of the wet weight of the sex accessory tissue in the mature male rat treated with the estryne and pregnyne.
A. Male rats were used to assess the effect of estryne on endogenous androgen biosynthesis at varying doses (1-20 mg/kg body weight). […] On the eighth day the animals were sacrificed and the ventral prostate, dorsal lateral prostate, seminal vesicles, testes, kidneys, and adrenals were removed and weighed. Samples of each tissue were preserved in 10% buffered formalin for histological examination.
B. Male rats were treated with 19-norpregnyne by a regimen exactly as described for the estryne.

[2] = target: T1, Δ^5 -3-ketosteroid isomerase (EC 5.3.3.1) (Comamonas testosteroni, UniProt P00947); assay: irreversible inactivation of crystalline purified bacterial Δ^5-3-ketosteroid isomerase by acetylenic steroids (Kitz and Wilson kinetic analysis); type: biochemical, Pseudomonas testosteroni; conditions: 24 hr at 4° vs. 1 mM potassium phosphate buffer, pH 7.0
T1 sequence (P00947 whole entry, stated change not applied): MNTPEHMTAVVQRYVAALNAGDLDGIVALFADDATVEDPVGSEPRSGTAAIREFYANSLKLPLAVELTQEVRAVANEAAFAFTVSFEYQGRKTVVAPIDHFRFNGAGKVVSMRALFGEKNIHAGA

[3] = target: T1, Δ^5 -3-ketosteroid isomerase (EC 5.3.3.1); assay: as above; type: biochemical, Pseudomonas testosteroni
Protocol: The inactivation is progressive with time, and half-lives in the range of 150-1320 sec are observed at concentrations of 20-200 μM of the two inhibitors. The enzymatic activities of control vessels which received only equivalent volumes of 1,4-dioxane remained constant at initial activities.
The initial rates of inactivation of the isomerase by (1) and (2) can be analyzed by the method of Kitz and Wilson^8 since very satisfactory pseudo-first-order behavior was observed. It is assumed that [I] (inhibitor) >> [E] (enzyme), that [E.I] (the reversible enzyme-inhibitorcomplex) is at all times in equilibrium with enzyme and inhibitor, and that ^k cat >> ^k inh. The scheme for the formation of EI' (the irreversible enzyme-inhibitor derivative) may then be represented as follows.
If the enzyme-inhibitor solution is diluted extensively prior to assay, the active enzyme (ε) = [E] + [E.I]. Then -d(ε)/dt = k3 [E.I.], and K1 = ([E][I])/[EI]. Thus [formula] where Et = total amount of enzyme in system.
If one defines [formula] Consequently double reciprocal plots of kapp with respect to [I] should be linear, with slopes and intercepts permitting the determination of K1 and k3 where the latter is the overall rate constant for the irreversible inhibition process.
From plots of 1n ε (residual enzymatic activity) vs. time, kapp has been determined at five inhibitor concentrations for both compounds 1 and 2, i.e. estryne and pregnyne. Strict linearity of the semilogarithmic plots has been observed in all cases, over greater than two half-lives. A plot of 1/kapp vs. 1/[I] was linear and gave k3 and K1 (FIG. 1). For compound 1, K1 = 56 μM and k3 = 1.98 × 10^-3 sec^-1, and for compound 2, K1 = 32 μM and k3 = 4.10 × 10^-3 sec^-1.
Studies were performed using crystalline purified bacterial Δ^5 -3-ketosteroid isomerase (from P. testosteroni), under pseudo first order conditions using the kinetic analysis of R. Kitz and I. B. Wilson [J. Biol. Chem., 237, 3245 (1964)].

[4] = target: T2, cytosol androgen receptor (prostate androgen binding protein) (Rattus norvegicus, UniProt P15207); assay: inhibition of nuclear uptake of ^3H-dihydrotestosterone in ventral prostate minces (binding to the prostatic androgen receptor)
T2 construct: freshly minced ventral prostate tissue obtained from rats castrated 24 hours before sacrifice; from tissue; host or cells: ventral prostate minces of castrated rats
T2 sequence (P15207 1-902): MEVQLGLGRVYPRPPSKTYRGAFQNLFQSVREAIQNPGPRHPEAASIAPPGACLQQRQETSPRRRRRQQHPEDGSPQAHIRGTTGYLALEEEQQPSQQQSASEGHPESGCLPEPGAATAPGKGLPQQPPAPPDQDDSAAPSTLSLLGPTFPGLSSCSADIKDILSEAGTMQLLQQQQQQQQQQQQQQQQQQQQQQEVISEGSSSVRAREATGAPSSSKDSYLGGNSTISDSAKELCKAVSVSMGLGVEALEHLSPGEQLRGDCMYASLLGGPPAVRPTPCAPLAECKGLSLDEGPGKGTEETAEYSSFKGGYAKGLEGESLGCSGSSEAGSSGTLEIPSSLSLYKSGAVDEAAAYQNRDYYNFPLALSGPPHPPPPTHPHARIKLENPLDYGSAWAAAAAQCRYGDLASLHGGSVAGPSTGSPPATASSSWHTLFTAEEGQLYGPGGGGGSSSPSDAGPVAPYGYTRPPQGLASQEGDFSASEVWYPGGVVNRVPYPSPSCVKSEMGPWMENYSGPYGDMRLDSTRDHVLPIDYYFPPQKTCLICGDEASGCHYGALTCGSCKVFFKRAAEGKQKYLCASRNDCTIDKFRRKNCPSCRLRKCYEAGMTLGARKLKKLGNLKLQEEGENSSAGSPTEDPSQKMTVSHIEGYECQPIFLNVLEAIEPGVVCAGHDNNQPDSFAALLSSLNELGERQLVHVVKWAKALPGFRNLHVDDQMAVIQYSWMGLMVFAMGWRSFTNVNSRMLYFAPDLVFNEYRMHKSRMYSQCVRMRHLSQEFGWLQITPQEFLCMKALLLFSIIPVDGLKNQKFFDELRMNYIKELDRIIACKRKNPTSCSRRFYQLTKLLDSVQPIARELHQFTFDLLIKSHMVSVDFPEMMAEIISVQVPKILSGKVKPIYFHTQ
Protocol: The binding to the cytosol androgen receptor was determined by the procedure of Fang (5) with modification. […] The amount of radioactivity in the nuclei is expressed as observed counts per minute per 100 μg DNA.

[5] = 20mg per kilo per day, i.p. in propylene glycol

In the case of `C[C@]12CC[C@@H]3C(=O)CCC(=O)CC#CC[C@H]3[C@@H]1CCC2=O` [Compound 1, 5,10-secoestr-5-yne-3,10,17-trione], the “reduction in weight of the dorsal lateral prostate” value [1, 5] is reported as 25-30%, the “reduction in weight of the ventral prostate” value [1, 5] is reported as 28% and the “reduction in weight of the ventral prostate” value ([1]; 20mg per kilo per day, i.p. in propylene glycol, listed as estryne) is reported as 25-30%. The “dose dependence of the effect on prostatic weight” value ([1]; 1-20 mg/kg, in words) was “dose dependent”, the “effect on weight of the adrenal” value ([1]; in words) was “no effect” and the “effect on weight of the kidney” value ([1]; in words) was “no effect”. For the same compound, the “effect on weight of the seminal vesicles” value ([1]; in words) was “Only a modest decrease”, the “effect on weight of the testes” value ([1]; in words) was “no effect” and the “effect on wet weight of the dorsal-lateral prostate” value ([1]; in words) was “depresses the wet weight”. The “effect on wet weight of the ventral prostate” value ([1]; in words) was “depresses the wet weight”, the “Adrenal weight (± Sem)” value ([1]; estryne 1 mg/kg daily i.p.) was 28 ± 2 mg and the “Dorsal Lateral Prostate weight (± Sem)” value ([1]; estryne 1 mg/kg daily i.p.) was 212 ± 19 mg. For the same compound, the “Seminal Vesicles weight (± Sem)” value ([1]; estryne 1 mg/kg daily i.p.) was 380 ± 18 mg, the “Ventral Prostate weight (± Sem)” value ([1]; estryne 1 mg/kg daily i.p.) was 435 ± 23 mg and the “Kidney weight (± Sem)” value ([1]; estryne 1 mg/kg daily i.p.) was 1320 ± 68 mg. For the same compound, the “Testis weight (± Sem)” value ([1]; estryne 1 mg/kg daily i.p.) was 1650 ± 60 mg, the “Adrenal weight (± Sem)” value ([1]; estryne 5 mg/kg daily i.p.) was 26 ± 2 mg and the “Dorsal Lateral Prostate weight (± Sem)” value ([1]; estryne 5 mg/kg daily i.p.) was 195 ± 8 mg. The “Seminal Vesicles weight (± Sem)” value ([1]; estryne 5 mg/kg daily i.p.) was 368 ± 16 mg, the “Ventral Prostate weight (± Sem)” value ([1]; estryne 5 mg/kg daily i.p.) was 385 ± 8 mg and the “Kidney weight (± Sem)” value ([1]; estryne 5 mg/kg daily i.p.) was 1090 ± 39 mg. The “Testis weight (± Sem)” value ([1]; estryne 5 mg/kg daily i.p.) was 1590 ± 54 mg, the “Adrenal weight (± Sem)” value ([1]; estryne 10 mg/kg daily i.p.) was 30 ± 2 mg and the “Dorsal Lateral Prostate weight (± Sem)” value ([1]; estryne 10 mg/kg daily i.p.) was 188 ± 6 mg. For the same compound, the “Seminal Vesicles weight (± Sem)” value ([1]; estryne 10 mg/kg daily i.p.) was 387 ± 14 mg, the “Ventral Prostate weight (± Sem)” value ([1]; estryne 10 mg/kg daily i.p.) was 364 ± 25 mg and the “Kidney weight (± Sem)” value ([1]; estryne 10 mg/kg daily i.p.) was 1150 ± 42 mg. The “Testis weight (± Sem)” value ([1]; estryne 10 mg/kg daily i.p.) was 1580 ± 59 mg, the “Adrenal weight (± Sem)” value ([1]; estryne 20 mg/kg daily i.p.) was 30 ± 3 mg and the “Dorsal Lateral Prostate weight (± Sem)” value ([1]; estryne 20 mg/kg daily i.p.) was 177 ± 15 mg. For the same compound, the “Seminal Vesicles weight (± Sem)” value ([1]; estryne 20 mg/kg daily i.p.) was 309 ± 23 mg, the “Ventral Prostate weight (± Sem)” value ([1]; estryne 20 mg/kg daily i.p.) was 302 ± 28 mg and the “Kidney weight (± Sem)” value ([1]; estryne 20 mg/kg daily i.p.) was 1040 ± 35 mg. For the same compound, the “Testis weight (± Sem)” value ([1]; estryne 20 mg/kg daily i.p.) was 1420 ± 64 mg, the “restoration of enzymatic activity by prolonged dialysis” value [2] was “inability to restore enzymatic activity” and the “irreversible inhibition / inactivation of the enzyme” value ([3]; in words) was “rapid irreversible inhibition; also recorded: rapid irreversible and complete inactivation of the enzyme; also recorded: Powerful irreversible inhibition”. For the same compound, the “half-life of enzyme inactivation” value ([3]; pH 7.0, 20-200 μM of the two inhibitors, in 1,4-dioxane) was 2.5 to 22 min, the kinact ([3]; pH 7, pseudo first order conditions, five inhibitor concentrations (10-fold range), read-out: k3, overall rate constant for the irreversible inhibition process) was 0.00198 s⁻¹ and the Ki ([3]; pseudo first order conditions, five inhibitor concentrations (10-fold range), read-out: K1 (KI), inhibitor dissociation constant) was 56 µM. For the same compound, the “inhibition of nuclear uptake of ^3H-dihydrotestosterone” value ([4]; 2 × 10^-6 M with ^3H-DHT 2 × 10^-9 M) was “approximately 50%”, the remaining activity at 2 µM ([4]; rat, 1 h, pH 7.4, steroid 2 × 10^-6 M with ^3H-DHT 2 × 10^-9 M, read-out: nuclear uptake of ^3H-DHT, % Control) was 56% and the “CPM/100 DNA (nuclear uptake of ^3H-DHT)” value ([4]; steroid 2 × 10^-6 M with ^3H-DHT 2 × 10^-9 M, control 8,471) was 4,771 CPM/100 DNA.

Reference: patent publication US4087461A, “Anti-androgenic steroids” (The Johns Hopkins University, priority 1977, dated 1978)
